Data as given in PMC8252455, “Prediction of a clinically effective dose of THY1773, a novel V 1B receptor antagonist, based on preclinical data” (Biopharmaceutics & Drug Disposition, 2021).

Experiments:
[1] = Metabolic stability in rat liver microsomes; assay type: in vitro ADME; conditions: 1 μmol/L
Description: The oxidative metabolism of THY1773 was evaluated in rat and dog liver microsomes. THY1773 (1 μmol/L) was incubated with pooled liver microsomes (0.25 mg protein/ml) in sodium–potassium phosphate buffer (pH 7.4) consisting of 100 mmol/L sodium phosphate, 100 mmol/L potassium chloride, 2.5 mmol/L magnesium chloride (MgCl2), 1.5 mmol/L glucose‐6‐phosphate (G‐6‐P), and 0.18 units/ml G‐6‐P dehydrogenase (G‐6‐PDH). The reactions were initiated by the addition of β‐nicotinamide–adenine dinucleotide phosphate, oxidized form (NADP^+, 0.16 mmol/L), and incubated for 10, 20, 30, 40, 50, and 60 min. […] The intrinsic clearance (CLint) was calculated by the substrate depletion method described by Naritomi et al. (2001).
Since the CLliver was underestimated in rats and dogs from CLint in liver microsomes, the ratio of observed in vivo CLint and predicted CLint was calculated as the empirical scaling factor (ESF) for the extrapolation of CLliver from in vitro data. […] The total plasma clearance (CLtotal) was calculated by Equation (4): (4) CLtotal=QH×fu×(CLint/fu,mic)/QH+(fu/Rb)×(CLint/fu,mic)+CLrenal where QH is hepatic blood flow, fu is the free fraction in plasma, fu,mic is the fraction unbound in HLMs, Rb is blood‐to‐plasma ratio, and CLrenal is renal clearance. The fu,mic value was calculated using the Simcyp population based simulator (Version 16 R1; Simcyp Ltd.). […]

[2] = target: T1, rat anterior pituitary membrane V1B receptor (Rattus norvegicus, UniProt P48974); assay: In vitro binding, rat anterior pituitary membrane V1B receptor; conditions: unpublished data
T1 construct: rat anterior pituitary membrane V1B receptor; from tissue; host or cells: rat anterior pituitary membranes
T1 sequence (P48974 1-425): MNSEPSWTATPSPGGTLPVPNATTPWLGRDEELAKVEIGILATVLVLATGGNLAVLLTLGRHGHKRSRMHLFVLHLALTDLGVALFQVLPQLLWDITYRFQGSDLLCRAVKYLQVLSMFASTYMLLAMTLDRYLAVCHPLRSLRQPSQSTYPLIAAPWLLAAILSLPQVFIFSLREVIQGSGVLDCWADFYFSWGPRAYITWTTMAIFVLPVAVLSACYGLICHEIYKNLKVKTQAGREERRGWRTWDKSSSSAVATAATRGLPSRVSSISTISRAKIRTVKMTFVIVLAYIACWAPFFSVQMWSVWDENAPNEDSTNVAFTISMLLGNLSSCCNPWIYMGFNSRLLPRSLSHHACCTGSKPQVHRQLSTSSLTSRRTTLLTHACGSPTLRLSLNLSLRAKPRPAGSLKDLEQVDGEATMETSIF

[3] = Blood-to-plasma ratio in rat whole blood; assay type: in vitro ADME; conditions: 1 μmol/L
Description: The blood‐to‐plasma ratios of THY1773 were analyzed using pooled fresh whole blood (anticoagulant: EDTA‐2K) and control plasma separated from fresh whole blood in parallel from rats, dogs, and humans. Whole blood and control plasma containing 1 μmol/L THY1773 were incubated at 37°C for 30 min in a shaking water bath. The incubated whole blood was centrifuged at 2000 × g for 10 min at 4°C to obtain plasma. An aliquot of each plasma sample (i.e., isolated plasma from incubated whole blood and control plasma) was mixed with 8 volumes of acetonitrile/methanol (9:1, vol/vol) containing the IS. After centrifugation at 3974 × g for 10 min at 4°C, the supernatant was subjected to liquid chromatography/tandem mass spectrometry (LC‐MS/MS) analysis. The blood‐to‐plasma ratio was calculated by dividing the […].

[4] = Plasma protein binding by equilibrium dialysis, rat plasma; assay type: in vitro ADME; conditions: 300 ng/ml
Description: The plasma protein binding of THY1773 in rats, dogs, and humans was evaluated by an equilibrium dialysis method using a 96‐well equilibrium dialysis plate (HTDialysis) with a 12–14 kDa cut‐off dialysis membrane. THY1773 was dissolved in dimethyl sulfoxide, and spiked with rat, dog, or human plasma at a final concentration of 300 ng/ml. An aliquot of plasma containing THY1773 and sodium phosphate buffer (pH 7.4) was added into the donor side and the receiver side of each designated well, respectively. After incubation for 6 h at a rate of 50 oscillation/min at 37°C in an air incubator, an aliquot of each side of each well was collected and mixed with acetonitrile/methanol (9:1, vol/vol) containing the IS. Each sample was centrifuged at 3974 × g for 10 min at 4°C to remove the precipitated proteins, and the resultant supernatants were subjected to LC‐MS/MS analysis. The protein binding (%) was calculated using the Boudinot formula (Boudinot & Jusko, 1984).

## CC(C)NC(=O)Cn1c(-c2cccc(Cl)c2)nn(-c2ccc(CCN3CCOCC3)cc2)c1=O [THY1773]
[1]
  CLint in liver microsomes: 22.0 μL/min/mg protein
[2]
  Ki: 80.1 nM
[3]
  Blood-to-plasma ratio: 0.822
[4]
  Plasma protein binding: 89.2%
